# Experimental data reported in the supplement of paper PMC11451515.
# Tested on: P12-Ichikawa
# Assay: cell viability relative to DMSO control; higher = less cytotoxic
# Details: 48 h
# Procedure, shortened: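 NOMO1, SEM and P12-Ichikawa leukemia cells spent at least four passages adapting to each medium before use. They were seeded at 500 cells/well (NOMO1, SEM) or 1000 cells/well (P12-Ichikawa) in 5 μl in 1536-well plates and pin-dosed with library compounds in DMSO at 11 threefold steps from 47 μM down to 0.79 nM. After 48 h at 37°C, CellTiter-Glo One luminescence was read. Viability is reported as a percentage of the DMSO wells on each plate, with cell-free wells as background.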
# [1] = HPLM + 10% dialyzed FBS, 0.000781 µM
# [2] = HPLM + 10% dialyzed FBS, 0.00234 µM
# [3] = HPLM + 10% dialyzed FBS, 0.00702 µM
# [4] = HPLM + 10% dialyzed FBS, 0.0211 µM
# [5] = HPLM + 10% dialyzed FBS, 0.0632 µM
# [6] = HPLM + 10% dialyzed FBS, 0.19 µM
# [7] = HPLM + 10% dialyzed FBS, 0.569 µM
# [8] = HPLM + 10% dialyzed FBS, 1.71 µM
# [9] = HPLM + 10% dialyzed FBS, 5.12 µM
# [10] = HPLM + 10% dialyzed FBS, 15.4 µM
# [11] = HPLM + 10% dialyzed FBS, 46.1 µM
# [12] = RPMI 5 mM glucose + 10% FBS, 0.000781 µM
# [13] = RPMI 5 mM glucose + 10% FBS, 0.00234 µM
# [14] = RPMI 5 mM glucose + 10% FBS, 0.00702 µM
# [15] = RPMI 5 mM glucose + 10% FBS, 0.0211 µM
# [16] = RPMI 5 mM glucose + 10% FBS, 0.0632 µM
# [17] = RPMI 5 mM glucose + 10% FBS, 0.19 µM
# [18] = RPMI 5 mM glucose + 10% FBS, 0.569 µM
# [19] = RPMI 5 mM glucose + 10% FBS, 1.71 µM
# [20] = RPMI 5 mM glucose + 10% FBS, 5.12 µM
# [21] = RPMI 5 mM glucose + 10% FBS, 15.4 µM
# [22] = RPMI 5 mM glucose + 10% FBS, 46.1 µM
# [23] = RPMI 5 mM glucose + 10% dialyzed FBS, 0.000781 µM
# [24] = RPMI 5 mM glucose + 10% dialyzed FBS, 0.00234 µM
# [25] = RPMI 5 mM glucose + 10% dialyzed FBS, 0.00702 µM
# [26] = RPMI 5 mM glucose + 10% dialyzed FBS, 0.0211 µM
# [27] = RPMI 5 mM glucose + 10% dialyzed FBS, 0.0632 µM
# [28] = RPMI 5 mM glucose + 10% dialyzed FBS, 0.19 µM
# [29] = RPMI 5 mM glucose + 10% dialyzed FBS, 0.569 µM
# [30] = RPMI 5 mM glucose + 10% dialyzed FBS, 1.71 µM
# [31] = RPMI 5 mM glucose + 10% dialyzed FBS, 5.12 µM
# [32] = RPMI 5 mM glucose + 10% dialyzed FBS, 15.4 µM
# [33] = RPMI 5 mM glucose + 10% dialyzed FBS, 46.1 µM
Compound,cell viability [1] [%],cell viability [2] [%],cell viability [3] [%],cell viability [4] [%],cell viability [5] [%],cell viability [6] [%],cell viability [7] [%],cell viability [8] [%],cell viability [9] [%],cell viability [10] [%],cell viability [11] [%],cell viability [12] [%],cell viability [13] [%],cell viability [14] [%],cell viability [15] [%],cell viability [16] [%],cell viability [17] [%],cell viability [18] [%],cell viability [19] [%],cell viability [20] [%],cell viability [21] [%],cell viability [22] [%],cell viability [23] [%],cell viability [24] [%],cell viability [25] [%],cell viability [26] [%],cell viability [27] [%],cell viability [28] [%],cell viability [29] [%],cell viability [30] [%],cell viability [31] [%],cell viability [32] [%],cell viability [33] [%]
CN(C)[C@H]\1[C@@H]2C[C@H]3C(=C(O)\[C@]2(O)C(=O)\C(=C1O)C(N)=O)/C(=O)C4=C(O)C=CC=C4[C@@]3(C)O,113,115,114,115,113,116,114,111,114,108,93.9,112,103,109,116,118,110,114,107,115,92.8,98.8,114,101,114,111,116,116,111,104,105,97.5,97
C=C[C@H]1CN2CC[C@H]1C[C@H]2[C@H](O)c1ccnc2ccc(OC)cc12,100,98.6,93.6,104,96.3,100,104,105,108,110,100,95.9,104,99.4,95.7,93.6,101,106,109,129,111,75.4,89.9,89,91.7,93.1,96.3,96.7,94.1,95.3,102,101,81
Cn1c(CNc2ccc(C(=N)N)cc2)nc2cc(C(=O)N(CCC(=O)O)c3ccccn3)ccc21,96.7,102,107,109,105,114,104,109,117,113,114,100,118,120,118,123,113,122,128,115,110,120,97.3,111,112,110,115,110,109,120,112,105,112
Cc1cnc(-c2cc(N3CCN(C(=O)CC[S+](C)(=O)[O-])CC3)ncc2Cl)c(C)c1,117,116,114,130,124,131,126,122,130,128,128,–,–,–,–,–,–,–,–,–,–,–,–,–,–,–,–,–,–,–,–,–,–
COc1ncc(-c2ccc3nccc(-c4ccnnc4)c3c2)cc1N[S+](=O)([O-])c1ccc(F)cc1F,118,115,115,106,101,95.6,95.3,74.8,35.8,17,11.3,139,111,91.1,91.4,83.3,77,69.9,55.9,40,17.5,8.78,131,113,101,97.3,89,90.3,80.5,61.3,47.5,13.6,9.07
O=C(Nc1cc2cc[nH]c2cn1)c1ccccc1,95,90.7,109,112,113,109,111,106,5.06,1.54,-0.599,93.1,113,111,114,119,130,109,104,90.4,45.8,1.1,79.4,101,102,104,99.7,102,103,101,58.2,7.54,1.18
COc1ccc(-c2nc(N3CCOCC3)c3sc(CN(C)c4ncc(C(=O)NO)cn4)cc3n2)cn1,109,121,101,62.6,6.62,7.21,7.09,6.69,6.67,6.8,7.92,102,127,111,57.6,7.68,7.7,7.72,6.89,7.19,7.05,5.24,107,119,108,74.2,10.5,8.35,8.38,8.07,7.55,6.64,5.83
CN1CCCN=C1/C=C/c1cccs1.O=C(O)c1cc2ccccc2c(Cc2c(O)c(C(=O)O)cc3ccccc23)c1O,114,117,118,122,112,111,111,111,103,25,10.2,109,121,114,122,114,114,105,114,110,115,101,114,123,115,115,120,115,108,112,114,98.2,82.9
C[N]1C=C(C2=C1C=CC=C2)\C3=C(\C(=O)NC3=O)C4=C5CC(CN)CC[N]5C6=C4C=CC=C6 (stereo not drawn),103,105,106,113,98,116,110,108,106,84.2,60.3,97.2,108,101,111,90.5,117,120,115,94.6,66.2,45,119,116,119,113,113,129,129,119,109,83.4,45.7
S=P(N1CC1)(N1CC1)N1CC1,110,106,113,107,112,105,108,97.4,88.5,99.4,85.3,98.3,99,106,102,99.8,102,108,104,104,94.9,88.2,99.6,108,103,91.7,101,101,96.2,93.1,86.9,89.9,76.3
CCC[C@H]1C[C@H](C(=O)N[C@@H]([C@@H]2O[C@@H](SC)[C@@H](O)[C@@H](O)[C@H]2O)[C@H](C)Cl)N(C)C1,103,117,115,120,119,124,123,124,125,118,127,105,113,112,121,132,131,137,119,130,130,134,113,122,115,115,128,124,126,119,130,122,121
CN(C)C1=CC=C(C=C1)C(C2=CC=C(C=C2)N(C)C)=C/3\C=C/C(/C=C3)=[N+](C)C,114,107,122,116,115,74.1,18.5,1.52,1.65,1.9,0.24,107,103,102,111,94.9,24.6,14.9,3.64,6.36,4.49,0.553,110,104,115,106,94.1,34.3,19.2,10.9,12.8,3.78,0.17
OC1=CC2=C(C(=C1)O)C(=O)\C=C(/O2)C3=CC=CC=C3,104,102,105,108,110,108,103,110,104,77.9,3.28,104,104,107,111,115,110,101,107,103,82.9,3.34,99.5,103,102,99.9,103,100,114,104,103,84.4,4.92
CCC(C)(C)c1ccc(CC(C)CN2C[C@@H](C)O[C@@H](C)C2)cc1 (stereo partly drawn),81.2,81.5,82.8,91.5,97.3,84.6,91.9,94.9,89,87.8,91.6,88.9,81.4,88.1,87.8,89.1,82.3,93.9,85.6,90.7,86.2,88,72,76.7,78.3,79.6,81.8,80.6,84,81.8,85.5,76.3,75.8
C\C1=C(\C=C(\C#N)C(=O)N1)C2=CC=NC=C2,104,104,102,102,105,106,107,115,109,109,13.8,110,114,112,118,118,107,112,118,112,121,18.4,94.6,105,103,98.9,110,107,109,110,111,108,27.9
